Source: patent publication US20150118215A1, “Methods of Inhibiting Cell Proliferation” (The General Hospital Corporation, priority 2012, published 2015)
“Also recorded” adds a separate entry of the source.

How the values were obtained:
[1] = target: T1, Sec7-domain of cytohesin-2 (Homo sapiens, UniProt Q99418); details: Biacore; a2N(1-17) peptide and Sec7-domain; read-out: dissociation constant KD; cited from earlier work
T1 sequence (Q99418 72-201 limits assumed): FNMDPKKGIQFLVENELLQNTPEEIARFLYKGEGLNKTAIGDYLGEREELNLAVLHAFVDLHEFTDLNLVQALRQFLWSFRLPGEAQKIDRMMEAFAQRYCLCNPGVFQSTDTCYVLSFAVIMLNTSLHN

MTC cells [2] = assay: Cell population albumin degradation assay (DQ-Red BSA); format: cell-based; details: 5 μM peptides, 1 μM bafilomycin A1, 20 mM NH4Cl, 1 mM amiloride, 100 μM DMA
Experimental: Cell Population Albumin Degradation Assay—
Quantitative protein degradation assay was performed using DQ-Red BSA. MTC cells were seeded on 48-well plate (5,000 cells/well) and grown for 7 days until being polarized, followed by starvation for two days in serum-free DMEM medium. Cells were washed with Ringer buffer (pH 6.0) for three times and with Ringer buffer (pH 7.4) once. Cells were then incubated in 200 μl of Ringer buffer (pH 7.4) containing as indicated: 5 μM FITC-TAT, 5 μM FITC-a2N1-17-TAT peptide, 1 μM baflomycin A1, 20 mM NH4Cl, 1 mM amiloride or 100 μM DMA. DQ-Red BSA was added to a final concentration of 10 μg/ml. The fluorescence was estimated using a DTX 880 Microplate Reader (Beckman) with 590-nm excitation and 625-nm emission filters every 3 minutes. The 48-well plate was kept at 37° C. in the microplate reader (FIG. 11).

MTC cells [3] = assay: Cell population endocytic uptake assay (albumin-Alexa555, RITC-dextran) in MTC cells; format: cell-based; details: for effect on endocytic uptake of fluid phase marker RITC-dextran: control and peptide-stimulated conditions, inhibitors; for effect on uptake of albumin-Alexa555 via receptor-mediated (CDE) pathway: control non-stimulated conditions; for effect on uptake of albumin-Alexa555 via receptor-mediated (CDE) pathway / effect on uptake of albumin-Alexa555 via FITC-a2N1-17-TAT peptide-induced macropinocytosis (CIE) pathway: 1 μM bafilomycin A1, 100 μM DMA or 100 μM EIPA; for effect on uptake of albumin-Alexa555 via FITC-a2N1-17-TAT peptide-induced macropinocytosis (CIE) pathway: peptide-stimulated
Experimental: (§1) Cell Population Albumin Endocytic Uptake Assay—
(§2) Quantitative endocytic uptake of albumin-Alexa555 and RITC-dextran was performed using a cell population assay as previously described (Hurtado-Lorenzo et al. (Nat Cell Biol 8, 124-136, 2006)). HeLa cells were seeded on 48-well plates (5,000 cells/well) and grown for 5 days. MTC cells were seeded on 48-well plates (5,000 cells/well) and grown for 7 days until polarized, followed by starvation for 2 days in serum-free DMEM medium. Cells were incubated in 200 μl of Ringer buffer (pH 7.4) containing either 200 μg/ml albumin-Alexa555 or 500 μg/ml RITC-dextran in the presence of 5 μM FITC-TAT or 5 μM FITC-a2N1-17-TAT peptides. As indicated, cells were also treated with 1 μM bafilomycin A1, 1 mM amiloride, 100 μM DMA or 100 μM EIPA. At the indicated times, cells were washed with Ringer's buffer (pH 6.0) for three times and were permeabilized in 20 mM MOPS (pH 7.0), 0.1% Triton X-100. The fluorescence was measured using a DTX 880 Microplate Reader (Beckman) with 535-nm excitation and 595-nm emission filters (FIGS. 7, 8, and 12).

MTC cells [4] = assay: Pulse-chase live time-lapse confocal imaging and tracking of endocytic vesicles; format: cell-based
Experimental: Pulse-Chase Experiments and Live Time-Lapse Confocal Fluorescence Imaging—
Live cell imaging of MTC cells was performed using time-lapse confocal fluorescent imaging as previously described (Hurtado-Lorenzo et al. (Nat Cell Biol 8, 124-136, 2006)). MTC cells were seeded on FluoroDish (World Precision Instruments, Inc) (25,000-100,000 cells/dish) and grown to about 50% confluency. To label the organelles of the endocytic pathway in vivo, MTC cells were transfected using lipofectamine 2000 (Invitrogen) with 5 μg of the plasmids: i) EEA1-GFP or Rab5-EGFP (early endosomal markers); ii) Rab7-EGFP (late endosomal marker), and iii) LAMP1-mGFP (lysosomal marker). After two days, the cells were washed for three times with Ringer's buffer (pH 6.0) followed by one wash with Ringer's buffer (pH 7.4) at 37° C., and i) pulsed for 15 min with 5 μM FITC-TAT and 100 μg/ml albumin-Alexa594: ii) pulsed for 15 min with 5 μM FITC-a2N1-17-TAT and 100 μg/ml albumin-Alexa594; or iii) pre-incubated in the presence or absence of 1 μM bafilomycin A1 and pulsed with 100 μg/ml albumin-Alexa594. The MTC cells transfected with EEA1-GFP, Rab5-EGFP, Rab7-EGFP and LAMP1-GFP plasmids were pulsed for 6-15 min with 5 μM of CTMR-a2N1-17-TAT peptide. After the pulse, cells were washed either by perfusion or rinsing with Ringer's buffer (pH 7.4) and incubated in an environmental chamber (37° C., 5% CO2) coupled to a Nikon inverted microscope. Videos were acquired with a spinning-disc confocal imaging system Ultra View RS (Perkin Elmer). FIGS. 9 and 10 show frames from these movies.
Image Analysis and Tracking of Endocytic Vesicles—
Dynamics of the movement of early endosomes, late endosomes and lysosomes labeled with either: i) albumin-Alexa594; ii) FITC-a2N1-17-TAT and albumin-Alexa594; or iii) CTMR-a2N1-17-TAT and transfected EEA1-GFP markers were tracked with Particle Tracker PlugIn (Merkulova et al. (Biochim BiophysActa 1797, 1398-1409, 2010)) for ImageJ (NIH). The trajectories that appeared for over 30 frames were further analyzed. The two-dimensional displacement between consecutive frames was calculated from changes in X and Y position coordinates and speed was calculated by dividing the displacement by time. The two-dimensional displacements between all possible combinations of frames were also calculated and the longest distance was defined as “maximum distance” of the trajectory. The speeds were averaged for 11 consecutive frames and the fastest speed was defined as “maximum speed” of the trajectory.

Human NSCLC A549 cells = assay: Cell proliferation assays (MTT, direct cell counting); format: cell-based; details: A549, wild-type EGFR, KRas-G12S; three days treatment
Experimental: Cell Proliferation Assays—
First, MTT proliferation assay was carried out using cell growth determination kit according to manufacturer instructions (Sigma). Human NSCLC A549 cells which are expressing wild-type EGFR with KRas-G12S activation mutation were studied in these experiments. […] Medium was changed daily for three days, and cells were stained with MTT and DAPI when indicated.
Second, direct cells counting assays were also performed as follows. Microscopic images of 0.317 mm^2 area each well were acquired for MTT stained cells and cells were counted using ImageJ (NIH). […] Alternatively, the cells were stained with DAPI and microscopic images of whole wells were acquired using DeltaVision system (Applied Precision). Cells were counted using Particle Tracker PlugIn for ImageJ as above (FIG. 13).

cytohesin-2 = target: T2, cytohesin-2 (Homo sapiens, UniProt Q99418); assay: Radiolabel-based GEF-activity assay ([35S]-GTPγS binding) of full-length cytohesin-2 with myr-Arf1 or myr-Arf6; format: biochemical
T2 construct: steady-state enzymatic GEF-activity analysis of full-length cytohesin-2 or Sec7 domain with Arf1 and Arf6; made in house; host or cells: E. coli BL21DE3
T2 sequence (Q99418 1-400): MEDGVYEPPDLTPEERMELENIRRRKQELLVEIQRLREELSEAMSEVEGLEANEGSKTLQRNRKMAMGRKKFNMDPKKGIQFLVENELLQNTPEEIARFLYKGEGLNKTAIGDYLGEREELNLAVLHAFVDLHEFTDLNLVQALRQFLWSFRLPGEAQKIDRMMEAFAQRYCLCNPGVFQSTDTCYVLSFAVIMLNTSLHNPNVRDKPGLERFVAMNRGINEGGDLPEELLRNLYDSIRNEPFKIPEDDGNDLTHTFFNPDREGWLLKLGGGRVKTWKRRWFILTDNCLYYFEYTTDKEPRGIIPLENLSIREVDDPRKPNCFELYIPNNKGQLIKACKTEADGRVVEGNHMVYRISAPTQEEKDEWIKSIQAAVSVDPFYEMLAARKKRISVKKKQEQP
Experimental: Two assays were used to determine the GDP/GTP-exchange activity of both full-length cytohesin-2 and Sec7 domain.
a) Radiolabel-Based Assay.
The lipids were dissolved in chloroform. […] Proteins were trapped on nitrocellulose filters.
To test the potential signaling between V-ATPase and cytohesin-2/Arf GTP-binding proteins, a GEF-activity assay was established for cytohesin-2 (wt) and myristoylated myr-Arf6 (wt) and myr-Arf1 (wt) GTP-binding proteins (FIG. 2A). Human Arf1 was co-expressed with yeast N-myristoyltransferase in E. coli BL21/DE3 strain. Recombinant myr-Arf1 was purified from the E. coli lysate (A1) using an AKTApurifier equipped with HiTrapQ, Superdex200 columns (A2), and Phenyl Sepharose HP column (A3). Human Arf6 was also co-expressed with yeast N-myristoyltransferase in E. coli BL21/DE3 strain. Recombinant myr-Arf6 was extracted from insoluble fraction using Triton X-100 (B1). The extract was precipitated by 35% ammonium sulfate and myr-Arf6 purified with HiTrapQ column (B2). […] Several soluble, cell permeable and fluorescently labeled a2N1-17 derived peptides were synthesized, which were used in the current GEF-activity and structural studies in vitro.

HeLa cells = assay: Cell population endocytic uptake assay (albumin-Alexa555, RITC-dextran) in HeLa cells; format: cell-based; details: 5 μM peptide
Experimental: as §1, §2

[5] = EEA1-EGFP positive early endosomes, peptide in cytosol of MTC cells, 5 μM

MGSLFRSETMCLAQLFL [a2N(1-17)]
Kd [1]: 344 nM

N=C(N)NC(=O)c1nc(Cl)c(N)nc1N [amiloride]
effect on degradation of DQ-Red-BSA in endosomal/lysosomal compartments (MTC cells [2]): significantly stimulated

CO/C1=C\C(C)=C\[C@@H](C)[C@@H](O)[C@@H](C)C/C(C)=C/C=C/[C@H](OC)[C@@H]([C@@H](C)[C@@H](O)[C@H](C)[C@@]2(O)C[C@@H](O)[C@H](C)[C@@H](C(C)C)O2)OC1=O [bafilomycin A1]
effect on endocytic uptake of fluid phase marker RITC-dextran (MTC cells [3]): not modulated
effect on uptake of albumin-Alexa555 via receptor-mediated (CDE) pathway (MTC cells [3]): inhibitory action; also recorded: inhibits
effect on uptake of albumin-Alexa555 via FITC-a2N1-17-TAT peptide-induced macropinocytosis (CIE) pathway (MTC cells [3]): no effect; also recorded: does not modulate
effect on moving distance of albumin-Alexa594 positive vesicles (MTC cells [4]; MTC cells, 1 μM bafilomycin A1): time-dependent inhibitory effect
inhibitory effect on speed of albumin-Alexa594 positive vesicles (MTC cells [4]; MTC cells, late stages of trafficking, 1 μM bafilomycin A1): 20%
effect on degradation of DQ-Red-BSA in endosomal/lysosomal compartments (MTC cells [2]): strongly inhibited

CTMR- MGSLFRSESMCLAQLFL - YGRKKRRQRRR [CTMR-a2N1-17-TAT]
moving distance of early endosomes (MTC cells [4]; [5]): significant increase
moving speed of early endosomes (MTC cells [4]; [5]): significant increase

MGELFRSEEMTLAQLFL [a1N1-17]
inhibition of proliferation of human lung cancer A549 cells (Human NSCLC A549 cells): very potent inhibitors

Cl.N [NH4Cl]
effect on degradation of DQ-Red-BSA in endosomal/lysosomal compartments (MTC cells [2]): strongly inhibited

MGSLFRSESMCLAQLFL [a2N1-17]
inhibition of proliferation of human lung cancer A549 cells (Human NSCLC A549 cells): very potent inhibitors
more potent inhibitor of cytohesin-2 than SecinH3 (cytohesin-2; relative to SecinH3): up to 150 times

CCN(c1nc(N)c(C(=O)N=C(N)N)nc1Cl)C(C)C [EIPA, 5-(N-ethyl-N-isopropyl)amiloride]
effect on uptake of albumin-Alexa555 via receptor-mediated (CDE) pathway (MTC cells [3]): does not affect
effect on uptake of albumin-Alexa555 via FITC-a2N1-17-TAT peptide-induced macropinocytosis (CIE) pathway (MTC cells [3]): could inhibit

MASVFRSEEMCLSQVFL [a4N1-17]
inhibition of proliferation of human lung cancer A549 cells (Human NSCLC A549 cells): very potent inhibitors

FITC-TAT: biologically inactive control peptide, FITC-labelled TAT sequence (YGRKKRRQRRR; SEQ ID NO:33); also purchased from Anaspec
effect on uptake of RITC-dextran (HeLa cells): not
effect on uptake of albumin-Alexa555 (HeLa cells): not
effect on endocytic uptake of albumin-Alexa555 (in words) (MTC cells [3]; 5 μM peptide): no effect and not
effect on uptake of fluid-phase marker RITC-dextran (MTC cells [3]; 5 μM peptide): not
potently inhibits the enzymatic activity of cytohesin-2 (in words) (cytohesin-2; with both myr-Arf6 and myr-Arf1 as substrate): not
effect on degradation of DQ-Red-BSA in endosomal/lysosomal compartments (MTC cells [2]): did not have any effect; also recorded: do not affect

CN(C)c1nc(N)c(C(=O)N=C(N)N)nc1Cl.Cl [DMA, 5-N,N-dimethylamiloride hydrochloride]
effect on endocytic uptake of fluid phase marker RITC-dextran (MTC cells [3]): not modulated
effect on uptake of albumin-Alexa555 via receptor-mediated (CDE) pathway (MTC cells [3]; hydrochloride): does not affect; also recorded: does not modulate
effect on uptake of albumin-Alexa555 via FITC-a2N1-17-TAT peptide-induced macropinocytosis (CIE) pathway (MTC cells [3]; hydrochloride): could inhibit; also recorded: strongly inhibits
effect on degradation of DQ-Red-BSA in endosomal/lysosomal compartments (MTC cells [2]; hydrochloride): significantly stimulated; also recorded: increased

MGSMFRSEEVALVQLLL [a3N1-17]
inhibition of proliferation of human lung cancer A549 cells (Human NSCLC A549 cells): very potent inhibitors
